Columns and labels:
[1] = tested on: cortical mixed neuronal-glial cultures; assay: DCF assay of toxin-induced free radical formation in cortical mixed neuronal-glial cultures; format: cell-based, rat
Procedure: (§1) Mixed neuron-glia cell cultures were prepared from the spinal, mesencephalic and cortical regions of an embryonic Sprague-Dawley rat fetus (gestation day 15), respectively, as described in Tsai et al. (Ann. N.Y. Acad. Sci. 1042 (2005):338-348). Briefly, cells were dissociated with a mixture of papain/protease/deoxyribonuclease I (0.1%:0.1%:0.03%) and plated onto poly-lysine coated dishes at a density of 1 to 2×10^5 cells/cm^2 with Dulbecco's modified Eagle's medium (DMEM) supplemented with 10% fetal bovine serum (FBS). On the second day after cell seeding, the cultures were maintained in DMEM+10% FBS or in DMEM supplemented with N2 (Invitrogen, Carlsbad, Calif.) as serum-free medium.
(§2) On the 2nd or 3rd day after cell seeding, the cultures were firstly loaded with 50 μM DCFH-DA in serum-free medium (DMEM+N2) for 1 hr. The medium was then replaced with growth medium containing H2O2 (1 mM) or t-BOOH (0.75 mM) and the cultures were maintained in the growth medium for 2 hrs. HD2 (20 to 200 μg/ml) and baicalein (2 or 10 μM) were then added to the cultures within 10 minutes after the toxin treatment started, respectively. The resulted fluorescent DCF levels were measured by a fluorescence plate reader (ex/em: 485 nm/538 nm). FIGS. 5 and 6 show the results of the measurement.

[2] = tested on: spinal cord mixed neuronal-glial cultures; assay: DCF assay of toxin-induced free radical formation in spinal cord mixed neuronal-glial cultures; format: cell-based, rat
Procedure: as §1, §2

[3] = H2O2 1 mM, baicalein 2 and 10 μM
[4] = t-BOOH 0.75 mM, baicalein 2 or 10 μM, P<0.01

For `O=c1cc(-c2ccccc2)oc2cc(O)c(O)c(O)c12` [baicalein], the “free radical level induced by H2O2” value [1, 3] was “significantly reduced”, the “free radical level induced by t-BOOH” value [1, 4] was “significantly inhibited” and the “free radical level induced by H2O2” value [2, 3] was “significantly reduced”. The “free radical level induced by t-BOOH” value [2, 4] was “significantly inhibited”.

— US20110171329A1, “METHOD FOR TREATMENT OF NEURAL INJURIES” (priority 2009, published 2011)
